In patent publication US20070042938A1, “Use of dpiv and apn inhibitors for the treatment of dermatalogical diseases involving the hyperproliferation and modified differentiation conditions of fibroblasts” (priority 2003, published 2007):

System: human fibroblasts
Assay: DNA synthesis of human fibroblasts (3[H]-thymidine incorporation)
Assay type: cell-based
Conditions: fibroblasts of healthy donors, 48 h incubation with inhibitor, then 3[H]-methyl thymidine for further 6 h; dose-dependent (FIG. 3)
Description: Fibroblasts of healthy donors were incubated for 48 h together with the above-mentioned inhibitors, and the DNA synthesis was determined subsequently by a measurement of the ^3[H]-thymidine incorporation, as described by Reihold et al. (Reinhold D et al.: Inhibitors of dipeptidyl peptidase IV induce secretion of transforming growth factor β1 in PWM-stimulated PBMNC and T cells, Immunology 1997, 91: 354-360).
For measuring the dose-dependent effect of inhibitors of DP IV (Lys[Z(NO2)] thiazolidide) and of aminopeptidase N (Actinonin) on the DNA synthesis of human fibroblasts, cells were incubated for 48 h with the indicated concentrations of the inhibitors. Subsequently, ^3[H]-Methyl thymidine was added to the culture medium, and the amount of ^3[H]-thymidine incorporated into the DNA was measured after further 6 h.

Compound	inhibition of the DNA synthesis of human fibroblasts
N[C@@H](CCCCNC(=O)OCc1ccc([N+](=O)[O-])cc1)C(=O)N1CCSC1 [Lys[Z(NO2)] thiazolidide]	inhibited
CCCCC[C@H](CC(=O)NO)C(=O)N[C@H](C(=O)N1CCC[C@H]1CO)C(C)C [Actinonin]	inhibited
